Measurements from patent US5955497A, “Bioactive acetogenins” (Purdue Research Foundation, priority 1998, dated 1999).
In brackets after ≈: the same amount, converted by molar mass. Entries after “also recorded” stand apart in the source; their conditions may differ.

What was measured:
[1] = test system: panel of six cell lines (A-549, MCF-7, HT-29, A-498, PC-3, PACA-2); assay: cytotoxicity against the panel of six human tumor cell lines; assay type: cell-based; conditions: for spectra of cytotoxic selectivities, squamotacin versus molvizarin: Table 1
Experimental: (§1) The cytotoxicities of squamotacin, molvizarin and bullatacin were evaluated, in the same run, against a panel of six cell lines (Table 1). Adriamycin was included as a standard. The relative cytotoxicity of the compounds to non-tumor cells was determined based on the brine shrimp lethality assay (BSA). The panel of tumor cell lines tested includes human lung carcinoma (A-549), human breast carcinoma (MCF-7), human colon adenocarcinoma (HT-29), human renal carcinoma (A-498), human prostate adenocarcinoma (PC-3) and human pancreatic carcinoma (PACA-2).
(§2) The brine shrimp (Artemia salina Leach) test (BST) was performed as modified to determine LC50 values in μg/ml. Zhao et al., Phytochemistry, 33, p. 1065 (1993). Seven-day in vitro cytotoxicity tests against human tumor cell lines were carried out at the Purdue Cancer Center, using standard protocols for A-549 (human lung carcinoma), MCF-7 (human breast carcinoma) and HT-29 (human colon carcinoma), human renal carcinoma (A-498), human prostate adenocarcinoma (PC-3) and human pancreatic carcinoma (PACA-2) with adriamycin as a positive control. The reported ED50 values in μg/ml (Table 1) were tabulated from the same run, except where noted, in order to facilitate comparison for the SAR's.

in vivo = assay: in vivo; parameters: species or system Artemia salina Leach (brine shrimp); conditions: brine shrimp larvae, read-out: BST LC30
Experimental: as §1, §2

[2] = test system: PC-3 (human prostate adenocarcinoma); assay: seven-day in vitro cytotoxicity, PC-3; assay type: cell-based; conditions: for activity relative to the positive control adriamycin: PC-3, versus adriamycin; for selectivity for the prostate cell line (PC-3): PC-3, versus other cell lines of Table 1
Experimental: as §1, §2

[3] = test system: A2780 human ovarian cancer xenografts; conditions: 50 μg/kg, athymic mice bearing A2780 human ovarian cancer xenografts; cited from earlier work

With `CCCCCCCCCCCC[C@H](O)[C@H]1CC[C@H]([C@H]2CC[C@H]([C@H](O)CCCCCCCC[C@@H](O)CC3=C[C@H](C)OC3=O)O2)O1` [Compound 1, squamotacin] the “spectra of cytotoxic selectivities, squamotacin versus molvizarin” value [1] was “quite similar”, the “activity relative to bullatacin in the cell panel” value ([1]; six cell lines, versus bullatacin) was “less activity than bullatacin in five of the six cell lines tested, with HT-29 (colon) being the exception” and the LC50 (in vivo) was 6.8 ng/mL (≈ 0.0109 µM). The “activity relative to the positive control adriamycin” value [2] was “over 100 million” and the “selectivity for the prostate cell line (PC-3)” value [2] was “high selectively for the prostate cell line (PC-3); also recorded: high selectivity”.
In the case of `CCCCCCCCCC[C@H](O)[C@H]1CC[C@H]([C@H]2CC[C@H]([C@H](O)CCCCCCCC[C@@H](O)CC3=C[C@H](C)OC3=O)O2)O1` [Compound 2, molvizarin], the “spectra of cytotoxic selectivities, squamotacin versus molvizarin” value [1] is reported as “quite similar”, the “activity relative to the positive control adriamycin” value [2] is reported as “over 100 million” and the “selectivity for the prostate cell line (PC-3)” value [2] is reported as “high selectively for the prostate cell line (PC-3); also recorded: showed selectivity for PC-3; also recorded: high selectivity”.
For `CCCCCCCCCC[C@H](O)[C@H]1CC[C@H]([C@H]2CC[C@H]([C@H](O)CCCCCCCCCC[C@@H](O)CC3=C[C@H](C)OC3=O)O2)O1` [Compound 3, bullatacin], the “tumor growth inhibition (TGI)” value [3] is listed as 67%.
